Active and inactive are the calls of the source. The rule behind the calls is not given here.

This assay relates to HTR5A counterscreen cells, luminescence, activation. In words: HTR5A agonist-like luminescent signal – cell-based, luminescence, dose response, set 2, counter-screen for OPRM1-OPRD1 heterodimer activator project, late-stage follow-up (AID 651765). On the technique in general: The purpose of a counterscreen is to sort out artefacts and off-target activity.

Take `CCOC(=O)C1(CCc2ccccc2)CCN(C(=O)Nc2ccc(C)cc2C)CC1`: the EC50 is > 50 µM (inactive).
For the molecule `CCOC(=O)C1(Cc2ccccc2Cl)CCN(Cc2ccc(NC(C)=O)cc2)CC1`, the EC50 is > 50 µM (inactive).
`CCOC(=O)C1(CCOC)CCCN(Cc2ccc(NC(C)=O)cc2)C1` (stereo not drawn): the EC50 was > 50 µM (inactive).
For `CCOC(=O)C1(CCc2ccccc2)CCN(Cc2c(O)cccc2OC)CC1`, the EC50 is > 50 µM (inactive).
To `CCOC(=O)C1(Cc2ccccc2)CCCN(Cc2ccc(NC(C)=O)cc2)C1` (stereo not drawn) belongs > 50 µM (inactive); to `CCOC(=O)C1CCN(CCC(=O)Nc2ccc(C)cc2)CC1`, > 50 µM (inactive).
Turning to `CCOC(=O)C1(CCc2ccccc2)CCN(Cc2ccncc2)CC1`, the EC50 is > 50 µM (inactive).
For `CCOC(=O)C1(CCOC)CCN(Cc2ccc(N(C)c3ccccc3)cc2)CC1`, the EC50 is > 50 µM (inactive).
As for `CCOC(=O)C1(CCc2ccccc2)CCN(Cc2ccc(OC)cc2)CC1`, the EC50 was > 50 µM (inactive).
To `CCOC(=O)C1(Cc2ccccc2C)CCCN(Cc2ccc(NC(C)=O)cc2)C1` (stereo not drawn) belongs > 50 µM (inactive); to `C=Cc1ccc(C(=O)N2CCC(CCCc3ccccc3)(C(=O)OCC)CC2)cc1`, > 50 µM (inactive).
Consider `CCOC(=O)C1(CC2CC2)CCN(C(=O)c2ccc(N3CCCCC3)cc2)CC1`, for which the EC50 was > 50 µM (inactive).
Take `C=Cc1ccc(C(=O)N2CCC(CCc3ccccc3)(C(=O)OCC)CC2)cc1`: the EC50 was > 50 µM (inactive).
For the molecule `CC(=O)Nc1ccc(CN2CCCC(CO)(CCc3ccccc3)C2)cc1` (stereo not drawn), the EC50 was > 50 µM (inactive).
`CCOC(=O)C1(CCc2ccccc2)CCN(Cc2ccc(C#CC(C)(C)O)cc2)CC1`: the EC50 is > 50 µM (inactive).
Regarding `CCOC(=O)C1(Cc2ccc(OC)cc2)CCN(C(=O)c2ccc(N(C)C)cc2)CC1`, the EC50 was > 50 µM (inactive).
Turning to `CCOC(=O)C1(Cc2cccc(OC)c2)CCCN(Cc2ccc(NC(C)=O)cc2)C1` (stereo not drawn), the EC50 is > 50 µM (inactive).
As for `CCOC(=O)C1(CC2CC2)CCN(Cc2ccc(NC(C)=O)cc2)CC1`, the EC50 is > 50 µM (inactive).
As for `CCOC(=O)C1CCN(Cc2ccc(N(C)C)cc2)CC1`, the EC50 was > 50 µM (inactive).
Regarding `O=C(O)C1CCCCC1C(=O)Nc1ccc(CN2CCCCC2)cc1` (stereo not drawn), the EC50 was > 50 µM (inactive).
To `CCOC(=O)C1(CCc2ccccc2)CCN(Cc2ccc(O)cc2)CC1` belongs > 50 µM (inactive); to `CCOC(=O)C1(CCOC)CCN(Cc2ccc(NC(C)=O)cc2)CC1`, > 50 µM (inactive).
Then `CCOC(=O)C1CCCCN1Cc1ccc(NC(C)=O)cc1` (stereo not drawn), with > 50 µM (inactive); and `CCOC(=O)C1(CCOc2ccccc2)CCCN(Cc2ccc(NC(C)=O)cc2)C1` (stereo not drawn), with > 50 µM (inactive).
Regarding `CCOC(=O)C1CCN(C(=O)c2ccc(N(C)C)cc2)CC1`, the EC50 is > 50 µM (inactive).
For `CCOC(=O)C1(CCc2ccccc2)CCN(Cc2ccc(C(=O)OC)cc2)CC1`, the EC50 is > 50 µM (inactive).
On to `CCOC(=O)C1(CCc2ccccc2)CCCN(Cc2ccc(N3CCNC3=O)cc2)C1` (stereo not drawn), for which the EC50 is > 50 µM (inactive).
`CCOC(=O)C1CCN(Cc2ccc(NC(C)=O)cc2)CC1`: the EC50 is > 50 µM (inactive).

What is called EC50 is the concentration that produces a half-maximal response.

Source of the values: PubChem BioAssay AID651765 (The Scripps Research Institute Molecular Screening Center, 2012).
